According to article PMC9525908, “α-Crystallin chaperone mimetic drugs inhibit lens γ-crystallin aggregation: Potential role for cataract prevention” (The Journal of Biological Chemistry, 2022):
Positions count from the first letter of the chain named. Several values for one entry are separate records, joined by “and”; a condition that tells them apart may be missing. Equal entries are not always repeated. Where two headings read alike, the source gives them in different places.

Legend:
HγS = biological target: T1, HγS (Homo sapiens, UniProt P22914); assay: Thermal aggregation (72 °C, 20 min) turbidity assay, HγS; assay type: biochemical; conditions: 20 min, read-out: % Suppression; for inhibition: HγS, 75 μM protein, 72 °C 20 min
T1 sequence (P22914 1-178): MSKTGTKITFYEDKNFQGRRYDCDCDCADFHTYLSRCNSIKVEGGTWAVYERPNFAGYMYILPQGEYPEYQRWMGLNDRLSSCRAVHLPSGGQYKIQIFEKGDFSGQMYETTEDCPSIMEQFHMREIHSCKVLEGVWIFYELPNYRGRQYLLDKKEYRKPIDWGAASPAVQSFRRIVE
Source text: (§1) For a review, see the study by Roskamp et al. ([38]). […] For the mechanistic studies below these two compounds together with either drug M, chosen mostly as negative control, or the entire set of six compounds were used for comparison purpose, whereby the words “drug” or “compound” are used interchangeably in the studies later.

WT-MγS [1] = biological target: T2, WT-MγS (Mus musculus, UniProt O35486); assay: End-point heat-mediated turbidity assay, WT-MγS; assay type: biochemical; conditions: for inhibition at 500 µM: read-out: Percent Inhibition of heat mediated aggregation, WT-MGS; for Effect on MγS absorbance: 400 μM drug, 72 °C, protein above 0.5 mg/ml
T2 construct: made in house; host or cells: E. coli BL21(DE3) pLysS, pET17b vector
T2 sequence (O35486 1-178): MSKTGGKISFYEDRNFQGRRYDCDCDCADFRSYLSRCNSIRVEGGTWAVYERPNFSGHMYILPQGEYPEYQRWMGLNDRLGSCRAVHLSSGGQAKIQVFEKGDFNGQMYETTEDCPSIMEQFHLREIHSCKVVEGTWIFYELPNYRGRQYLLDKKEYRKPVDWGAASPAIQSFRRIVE
Experimental: For end-point assays, HγD and MγS (1 mg/ml, 100 μl) in 50 mM K3PO4 buffer (pH 7.2) in set of triplicates in transparent flat bottom 96-well plates were heated at 72 °C for 20 min in the presence and absence of selected drugs at varying concentrations. Absorbance was measured at 600 nm with a SpectraMax iD5 (Molecular Devices). […]
(§2) Final DMSO concentration was 5% including in control samples. Microtiter plates were first incubated for 10 min at 72 °C and reincubated for 10 more min. Absorbance was measured at both 10 and 20 min total incubation time.

[2] = test system: γ-crystallins (bovine, HγD and HγS crystallins); assay: Mean aggregation suppression across all γ-crystallins tested; assay type: biochemical; set-up: concentration or dose not given beside the values; conditions: mean of all experiments in Table 2 (n=9)
Source text: as §1
Table S 4: List of primers used for making WT -HγD mutants

WT-MγS [3] = biological target: T2, WT-MγS; assay: bis-ANS binding study, WT-MγS; conditions: read-out: Percent inhibition of binding of bis-ANS, WT-MγS
Experimental: Extrinsic fluorescence spectra were recorded using bis-ANS, a well-known surface hydrophobicity probe. The spectra were recorded between 400 and 600 nm after exciting at 390 nm. The experiment was performed on 10 μM of HγD and MγS in 50 mM K3PO4 buffer with and without our candidate drugs (100 μM). Bis-ANS stock solution was prepared in methanol whose final percentage was maintained below 7 after mixing with proteins ([81]).

HγS_N14/76/143D = biological target: T3, HγS_N14/76/143D (Homo sapiens, UniProt P22914, N144D/N15D/N77D); assay: Thermal aggregation (72 °C, 20 min) turbidity assay, HγS triple mutant; assay type: biochemical; conditions: read-out: % Suppression; for inhibition: HγS_N14/76/143D, 75 μM protein, 72 °C 20 min
T3 sequence (P22914 1-178 N15D/N77D/N144D): T1 sequence (P22914 1-178) with N15D, N77D, N144D
Source text: as §1

Bovine γ-crystallins = assay: Thermal aggregation (72 °C) turbidity assay, bovine γ-crystallins (pool 4); assay type: biochemical; conditions: for Thermal denaturation inhibitory activity in subscreen: 150 μM; for Thermal denaturation inhibitory activity in subscreen / % Suppression: 72 °C 20 min; for % Suppression: 75 μM protein, 125 μM or less inhibitor (1.7:1); for Effect on BGC aggregation at lower protein concentrations / Effect on absorbance of BGC at 2.0 mg/ml: 400 μM drug, 72 °C, 10 and 20 min
Experimental: Candidate compounds were rescreened using thermal denaturation upon heating at 72 °C for 20 min according to Chen et al. ([36]) in order to select for compounds with chaperone rather than antioxidant activity since a large number of the latter already exist in the cataract field ([37]).
as §1
All assays were carried out manually in CORNING #9017 Costar Assay 96-well plates. Wells were filled with 90 μl calf γ-crystallin-rich protein solution (pool 4 at 2 mg/ml) followed by 0.5 to 5.0 μl of drug (all 10 mM stock solution in DMSO) as supplied by the manufacturer and 10 μl H2O2 (450 mM stock solution in water) and sealed with sticky Applied Biosystems MicroAmp Clear Adhesive films (Life Technologies). Control wells received DMSO only. Plates were shaken for 2 min and incubated from 24 to 72 h in a culture room at 37 °C. […] A second reading was performed following a heat shock of 20 min at 72 °C as described by Chen et al. ([36]) in order to capture drugs with heat-resistant chaperone activity. In order to quantitate the impact of the drugs on aggregation, a fitness plot was created (Fig. 1 C) that allowed us to identify wells with enhanced/worsening versus suppressed crystallin aggregation. In addition, aggregation in each well was also visually assessed by two independent “blinded” readers for the ability to read fine print through each well by placing the plates over small font text (Fig. 1D). Both machine and visual readouts were reconciled in order to increase robustness.
as §2

[4] = 500 μM drug, end point of turbidity assay 72 °C 20 min
[5] = Bovine γ-crystallins experiment 1
[6] = Bovine γ-crystallins experiment 2

Row | inhibition (HγS) | inhibition at 500 µM (WT-MγS [1]; [4]) | inhibition at 100 µM (WT-MγS [3]; 10 μM protein, 100 μM drug) | inhibition (HγS_N14/76/143D) | SMILES | Mean % suppression / inhibition of γ-crystallin aggregation against thermal denaturation [2] | Thermal denaturation inhibitory activity in subscreen (Bovine γ-crystallins) | % Suppression (Bovine γ-crystallins; [5]) | % Suppression (Bovine γ-crystallins; [6]) | inhibition at 125 µM (HγS) | Effect on MγS absorbance (WT-MγS [1]) | inhibition at 500 µM (WT-MγS [1]) | inhibition at 100 µM (WT-MγS [3]) | inhibition at 125 µM (HγS_N14/76/143D) | Effect on BGC aggregation at lower protein concentrations (Bovine γ-crystallins) | Effect on absorbance of BGC at 2.0 mg/ml (Bovine γ-crystallins)
1 | 60% | 55.5 ± 8.03% | 11.94 ± 0.0018% | 46% | COC(=O)/C=C/C(C)=C\C=C\C(C)=C\C=C\C=C(C)\C=C\C=C(C)\C=C\C(=O)O [drug B, Bixin] | 49% and 48.8% | thermal denaturation inhibitory activity | 23% | 54% | – | – | – | – | – | – | –
2 | – | – | – | – | Cc1cc(C(C#N)c2ccc(Cl)cc2)c(Cl)cc1NC(=O)c1cc(I)cc(I)c1O (stereo not drawn) [drug C, Closantel] | 69% and 68.6% | thermal denaturation inhibitory activity | 60% | 73% | 71% | blocked absorbance | 80.5 ± 1.87% | 27.16 ± 0.0011% | 76% | stimulated aggregation | reproducibly suppressed absorbance
3 | – | – | – | – | CC(C)=CCCC1(C)C=Cc2c(O)c3c(c(CC=C(C)C)c2O1)OC12C(=CC4CC1C(C)(C)OC2(C/C=C(/C)C(=O)O)C4O)C3=O (stereo not drawn) [drug D, dihydrogambogic acid] | 54% | thermal denaturation inhibitory activity | 40% | 44% | 61% | – | 80.4 ± 0.44% | 19.49 ± 0.0018% | 32% | – | –
4 | – | – | – | – | CC(C)=CCC[C@]1(C)C=Cc2c(O)c3c(c(CC=C(C)C)c2O1)O[C@]12C(=C[C@@H]4C[C@H]1C(C)(C)O[C@@]2(C/C=C(/C)C(=O)O)C4=O)C3=O [drug G, Gambogic acid] | 64% and 64.2% | thermal denaturation inhibitory activity | 48% | 75% | 46% | blocked absorbance | 80.5 ± 2.45% | 40.72 ± 0.0008% | 89% | stimulated aggregation | reproducibly suppressed absorbance
5 | 39% | 46.3 ± 4.23% | 1.95 ± 0.0017% | 46% | O=C(O)CCCCCCCCCCCC[C@@H]1C=CCC1 [drug M, Chaulmoogric acid] | 42% and 42.2% | thermal denaturation inhibitory activity | 40% | 16% | – | – | – | – | – | – | –
6 | – | – | – | – | Oc1c(Cl)cc(Cl)c(Cl)c1Cc1c(O)c(Cl)cc(Cl)c1Cl [drug X, Hexachlorophene] | 56% and 55.8% | thermal denaturation inhibitory activity | 30% | 55% | 68% | – | 39.7 ± 3.42% | 10.17 ± 0.0014% | 71% | – | –
